Results published in ChEMBL document CHEMBL1144434, “Structure-activity relationships within a series of caspase inhibitors. Part 2: Heterocyclic warheads” (Bioorg Med Chem Lett, 2005).
pIC50: −log10 of the molar value.

What was measured:
Caspase-3 (Homo sapiens) = molecular target: T1, Caspase-3 (Homo sapiens) (UniProt P42574); experiment: Binding affinity against Caspase-3
T1 sequence (whole entry): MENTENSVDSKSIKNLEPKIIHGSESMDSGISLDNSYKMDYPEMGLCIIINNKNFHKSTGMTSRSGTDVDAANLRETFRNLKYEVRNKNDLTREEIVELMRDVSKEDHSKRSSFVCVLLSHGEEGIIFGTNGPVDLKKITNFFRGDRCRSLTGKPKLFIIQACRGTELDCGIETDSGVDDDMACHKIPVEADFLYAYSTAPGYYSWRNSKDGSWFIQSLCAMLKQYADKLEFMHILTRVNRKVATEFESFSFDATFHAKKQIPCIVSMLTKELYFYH

Caspase-6 (Homo sapiens) = molecular target: T2, Caspase-6 (Homo sapiens) (UniProt P55212); experiment: Binding affinity against Caspase-6
T2 sequence (whole entry): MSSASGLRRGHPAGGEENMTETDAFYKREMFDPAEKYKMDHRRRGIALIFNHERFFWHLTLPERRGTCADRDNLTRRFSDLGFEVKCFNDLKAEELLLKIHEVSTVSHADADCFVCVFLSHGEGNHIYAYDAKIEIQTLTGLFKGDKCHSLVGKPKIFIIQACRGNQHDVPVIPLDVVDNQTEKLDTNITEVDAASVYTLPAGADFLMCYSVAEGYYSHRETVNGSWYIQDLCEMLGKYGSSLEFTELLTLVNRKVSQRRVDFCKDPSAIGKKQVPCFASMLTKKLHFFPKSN

Caspase-8 (Homo sapiens) = Caspase-8 (Homo sapiens) (UniProt Q14790); experiment: Binding affinity against Caspase-8
Caspase-1 (Mus musculus) = molecular target: T3, Caspase-1 (Mus musculus) (UniProt P29452); experiment: Binding affinity against mouse Caspase-1
T3 sequence (whole entry): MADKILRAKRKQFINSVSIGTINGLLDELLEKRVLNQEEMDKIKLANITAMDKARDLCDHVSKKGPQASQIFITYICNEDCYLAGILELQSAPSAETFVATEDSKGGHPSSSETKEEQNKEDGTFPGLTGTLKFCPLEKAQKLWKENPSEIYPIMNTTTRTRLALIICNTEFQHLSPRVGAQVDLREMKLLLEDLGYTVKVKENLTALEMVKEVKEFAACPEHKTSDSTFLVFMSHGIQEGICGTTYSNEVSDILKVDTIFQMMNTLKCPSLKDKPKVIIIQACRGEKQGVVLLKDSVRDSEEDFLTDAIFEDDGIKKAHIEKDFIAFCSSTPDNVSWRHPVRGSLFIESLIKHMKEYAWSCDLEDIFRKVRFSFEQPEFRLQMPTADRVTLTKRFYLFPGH

Jurkat = experiment: Inhibitory concentration for cellular activity in jurkat assay; type: functional, cell-based; conditions: Homo sapiens

Caspase-8 (Homo sapiens), sequence (Q14790 217-374 limits assumed): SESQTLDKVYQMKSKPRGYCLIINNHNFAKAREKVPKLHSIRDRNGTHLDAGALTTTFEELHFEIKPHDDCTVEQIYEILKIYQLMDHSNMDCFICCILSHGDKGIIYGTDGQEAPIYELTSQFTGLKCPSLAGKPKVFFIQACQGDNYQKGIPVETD
Caspase-8 (Homo sapiens), sequence (Q14790 385-479 limits assumed): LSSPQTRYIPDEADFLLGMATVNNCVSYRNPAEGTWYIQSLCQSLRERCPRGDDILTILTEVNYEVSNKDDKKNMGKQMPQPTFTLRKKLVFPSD

SMILES	k3/ki (Caspase-3 (Homo sapiens))	k3/ki (Caspase-6 (Homo sapiens))	k3/ki (Caspase-8 (Homo sapiens))	k3/ki (Caspase-1 (Mus musculus))	pIC50 (Jurkat)
CC(C)[C@H](NC(=O)COc1cccc2ccccc12)C(=O)N[C@@H](CC(=O)O)C(=O)COc1cc(C(F)(F)F)ncn1	1750 1/m/s	156 1/m/s	0 1/m/s	479 1/m/s	< 3.70
CC(C)[C@H](NC(=O)COc1cccc2ccccc12)C(=O)N[C@@H](CC(=O)O)C(=O)CSc1nc(-c2ccccc2)cs1	2730 1/m/s	0 1/m/s	0 1/m/s	217 1/m/s	< 3.70
CC(C)[C@H](NC(=O)COc1cccc2ccccc12)C(=O)N[C@@H](CC(=O)O)C(=O)CSc1nnnn1-c1ccccc1	19200 1/m/s	224 1/m/s	0 1/m/s	400 1/m/s	3.82
Cc1nnc(SCC(=O)[C@H](CC(=O)O)NC(=O)[C@@H](NC(=O)COc2cccc3ccccc23)C(C)C)s1	5240 1/m/s	83 1/m/s	0 1/m/s	5480 1/m/s	3.72
CC(C)[C@H](NC(=O)COc1cccc2ccccc12)C(=O)N[C@@H](CC(=O)O)C(=O)CSc1nc(-c2ccccc2)no1	38100 1/m/s	975 1/m/s	3060 1/m/s	1190 1/m/s	3.99
CC(C)[C@H](NC(=O)COc1cccc2ccccc12)C(=O)N[C@@H](CC(=O)O)C(=O)COc1cc(C(F)(F)F)nn1-c1ccccc1	71100 1/m/s	23900 1/m/s	2270 1/m/s	7570 1/m/s	4.55
CC(C)[C@H](NC(=O)COc1cccc2ccccc12)C(=O)N[C@@H](CC(=O)O)C(=O)CSc1nc(-c2ccccc2)c(-c2ccccc2)[nH]1	1390 1/m/s	22 1/m/s	0 1/m/s	199 1/m/s	< 3.70
CC(C)[C@H](NC(=O)COc1cccc2ccccc12)C(=O)N[C@@H](CC(=O)O)C(=O)CSc1nncn1C	2260 1/m/s	221 1/m/s	293 1/m/s	180 1/m/s	< 3.70
Cc1cc(OCC(=O)[C@H](CC(=O)O)NC(=O)[C@@H](NC(=O)COc2cccc3ccccc23)C(C)C)nc(C)n1	7480 1/m/s	903 1/m/s	367 1/m/s	1330 1/m/s	< 3.70
CC(C)[C@H](NC(=O)COc1cccc2ccccc12)C(=O)N[C@@H](CC(=O)O)C(=O)COc1cccc2cccnc12	4360 1/m/s	140 1/m/s	39 1/m/s	1260 1/m/s	< 3.70
CC(C)[C@H](NC(=O)COc1cccc2ccccc12)C(=O)N[C@@H](CC(=O)O)C(=O)CSc1nc2ccccc2o1	0 1/m/s	–	0 1/m/s	0 1/m/s	< 3.70
CC(C)[C@H](NC(=O)COc1cccc2ccccc12)C(=O)N[C@@H](CC(=O)O)C(=O)COc1ccccn1	733 1/m/s	5 1/m/s	8 1/m/s	138 1/m/s	< 3.70
CC(C)[C@H](NC(=O)COc1cccc2ccccc12)C(=O)N[C@@H](CC(=O)O)C(=O)COc1nncc(Cl)c1Cl	1760 1/m/s	8 1/m/s	0 1/m/s	152 1/m/s	< 3.70
CC(C)[C@H](NC(=O)COc1cccc2ccccc12)C(=O)N[C@@H](CC(=O)O)C(=O)CSc1nnc(-c2ccccc2)o1	4800 1/m/s	110 1/m/s	276 1/m/s	280 1/m/s	3.82
CC(C)[C@H](NC(=O)COc1cccc2ccccc12)C(=O)N[C@@H](CC(=O)O)C(=O)CSc1nccc(C(F)(F)F)n1	0 1/m/s	0 1/m/s	0 1/m/s	0 1/m/s	< 3.70
CC(C)[C@H](NC(=O)COc1cccc2ccccc12)C(=O)N[C@@H](CC(=O)O)C(=O)CSc1nnnn1C	34400 1/m/s	2150 1/m/s	6510 1/m/s	3630 1/m/s	< 3.70
CC(C)[C@H](NC(=O)COc1cccc2ccccc12)C(=O)N[C@@H](CC(=O)O)C(=O)CSc1nccn1C	11500 1/m/s	570 1/m/s	212 1/m/s	1200 1/m/s	< 3.70
CC(C)[C@H](NC(=O)COc1cccc2ccccc12)C(=O)N[C@@H](CC(=O)O)C(=O)COc1cc2ccccc2cn1	3350 1/m/s	96 1/m/s	8 1/m/s	693 1/m/s	< 3.70

SMILES	k3/ki (Caspase-3 (Homo sapiens))	k3/ki (Caspase-6 (Homo sapiens))	k3/ki (Caspase-8 (Homo sapiens))	k3/ki (Caspase-1 (Mus musculus))	pIC50 (Jurkat)
CC(C)[C@H](NC(=O)COc1cccc2ccccc12)C(=O)N[C@@H](CC(=O)O)C(=O)COc1cc(C(F)(F)F)n(C)n1	35500 1/m/s	509 1/m/s	295 1/m/s	9400 1/m/s	4.34
CC(C)[C@H](NC(=O)COc1cccc2ccccc12)C(=O)N[C@@H](CC(=O)O)C(=O)CSc1ccccn1	348 1/m/s	0 1/m/s	0 1/m/s	0 1/m/s	–
CC(C)[C@H](NC(=O)COc1cccc2ccccc12)C(=O)N[C@@H](CC(=O)O)C(=O)COc1ccc2ccccc2n1	979 1/m/s	0 1/m/s	9 1/m/s	67 1/m/s	< 3.70
CC(C)[C@H](NC(=O)COc1cccc2ccccc12)C(=O)N[C@@H](CC(=O)O)C(=O)COc1nccc2ccccc12	1310 1/m/s	462 1/m/s	177 1/m/s	360 1/m/s	3.97
CC(C)[C@H](NC(=O)COc1cccc2ccccc12)C(=O)N[C@@H](CC(=O)O)C(=O)CSc1nc2ccccc2s1	3570 1/m/s	0 1/m/s	0 1/m/s	202 1/m/s	< 3.70
CC(C)[C@H](NC(=O)COc1cccc2ccccc12)C(=O)N[C@@H](CC(=O)O)C(=O)COc1ccnc(C(F)(F)F)n1	114000 1/m/s	5150 1/m/s	3200 1/m/s	24800 1/m/s	4.43
CC(C)[C@H](NC(=O)COc1cccc2ccccc12)C(=O)N[C@@H](CC(=O)O)C(=O)COc1nccc(C(F)(F)F)n1	0 1/m/s	0 1/m/s	0 1/m/s	0 1/m/s	< 3.70
Cc1cc(C)nc(SCC(=O)[C@H](CC(=O)O)NC(=O)[C@@H](NC(=O)COc2cccc3ccccc23)C(C)C)n1	7130 1/m/s	656 1/m/s	120 1/m/s	950 1/m/s	< 3.70
CC(C)[C@H](NC(=O)COc1cccc2ccccc12)C(=O)N[C@@H](CC(=O)O)C(=O)CSc1ncc[nH]1	850 1/m/s	22 1/m/s	0 1/m/s	173 1/m/s	< 3.70
Cc1cc(C)nc(OCC(=O)[C@H](CC(=O)O)NC(=O)[C@@H](NC(=O)COc2cccc3ccccc23)C(C)C)n1	283 1/m/s	0 1/m/s	0 1/m/s	10 1/m/s	–
CC(C)[C@H](NC(=O)COc1cccc2ccccc12)C(=O)N[C@@H](CC(=O)O)C(=O)COc1nc2ccccc2[nH]1	958 1/m/s	0 1/m/s	2 1/m/s	41 1/m/s	< 3.70
CC(C)[C@H](NC(=O)COc1cccc2ccccc12)C(=O)N[C@@H](CC(=O)O)C(=O)CSc1nc(-c2ccccc2)c(-c2ccccc2)o1	2010 1/m/s	0 1/m/s	218 1/m/s	200 1/m/s	< 3.70
CC(C)[C@H](NC(=O)COc1cccc2ccccc12)C(=O)N[C@@H](CC(=O)O)C(=O)COc1[nH]cnc2nncc1-2	906 1/m/s	143 1/m/s	107 1/m/s	273 1/m/s	3.79
CC(C)[C@H](NC(=O)COc1cccc2ccccc12)C(=O)N[C@@H](CC(=O)O)C(=O)COc1cncc2ccccc12	0 1/m/s	0 1/m/s	0 1/m/s	0 1/m/s	3.78
CC(C)[C@H](NC(=O)COc1cccc2ccccc12)C(=O)N[C@@H](CC(=O)O)C(=O)CSC1=NCCS1	2300 1/m/s	228 1/m/s	231 1/m/s	186 1/m/s	< 3.70
CC(C)[C@H](NC(=O)COc1cccc2ccccc12)C(=O)N[C@@H](CC(=O)O)C(=O)CSc1nc[nH]n1	401 1/m/s	17 1/m/s	0 1/m/s	115 1/m/s	< 3.70
CC(C)[C@H](NC(=O)COc1cccc2ccccc12)C(=O)N[C@@H](CC(=O)O)C(=O)COn1nnc2ccccc21	121000 1/m/s	8530 1/m/s	14500 1/m/s	28300 1/m/s	< 3.70
CC(C)[C@H](NC(=O)COc1cccc2ccccc12)C(=O)N[C@@H](CC(=O)O)C(=O)COc1ncnc2ccccc12	343 1/m/s	0 1/m/s	4 1/m/s	83 1/m/s	< 3.70
